Key:
[1] = biological target: T1, NDM-1 (Klebsiella pneumoniae, UniProt C7C422); assay: Fluorogenic β-lactamase inhibition assay (FC-5 substrate), NDM-1; type: biochemical
T1 construct: made in house; host or cells: E. coli
Method: (§1) Kinetic and inhibition analyses, and ^19F NMR studies[10] against bacterial β-lactamases were performed as described. The FC-5 cephalosporin[9] was used as substrate for BcII, VIM-2, IMP-1, NDM-1, SPM-1, TEM-1 and OXA-10, meropenem[28] for CphA and nitrocefin[34] for PBP 3 and PBP 5.
(§2) In brief IC50 values were determined by preincubation of the appropriate amount of enzyme with the cyclic boronates in the assay buffers for 10 min at room temperature prior to the initiation of the assay by the addition of the appropriate substrate. The enzyme concentrations used are the following: 1 nM BcII, 100 nM VIM-2, 10 nM IMP-1, 10 nM NDM-1, 1 nM SPM-1, 1 nM TEM-1, 1 nM OXA-10, 2.5 nM CphA, 4 μM PBP 3 and 5 μM PBP 5; note that the final concentrations are stated. The assay buffers used are the following: 50 mM HEPES, pH 7.2 supplemented with 1 μg BSA, 1 μg ZnSO4 and 0.01% Triton for BcII, VIM-2, IMP-1, NDM-1 and SPM-1, 15 mM MES, pH 6.5 for CphA, 50 mM HEPES, pH 7.2 supplemented with 200 mM NaCl and 0.01% Triton 100 for TEM-1, 100 mM sodium phosphate, pH 7.2 supplemented with 50 mM NaHCO3 and 0.01% Triton 100 for OXA-10 and 50 mM HEPES, pH 7.2 supplemented with 200 mM NaCl and 0.01% Triton 100 for PBP 3 and PBP 5. The amount of substrates used is the following: 5 μM for BcII, VIM-2, IMP-1, NDM-1 and SPM-1, 10 μM for TEM-1 and OXA-10, 125 μM for CphA and 25 μM for PBP 3 and PBP 5; note that the final concentrations are stated.
(§3) The experiments were performed using a PHERAstar FS microplate reader (BMG Labtech) at room temperature (24–25 °C). All enzymes and inhibitors were prepared in the specific assay buffer. The kinetic values in this study are the means from at least three independent measurements; at least nine different concentrations of the inhibitor were used to determine the kinetic parameters (IC50). The IC50 values were determined using the software package Graph Prism 5.

[2] = biological target: T2, OXA-10 (Pseudomonas aeruginosa, UniProt P14489); assay: Fluorogenic β-lactamase inhibition assay (FC-5 substrate), OXA-10; type: biochemical
T2 construct: made in house; host or cells: E. coli
Method: as §1, §2, §3

[3] = biological target: T3, IMP-1 (Serratia marcescens, UniProt P52699); assay: Fluorogenic β-lactamase inhibition assay (FC-5 substrate), IMP-1; type: biochemical
T3 construct: made in house; host or cells: E. coli
Method: as §1
In brief IC50 values were determined by preincubation of the appropriate amount of enzyme with the cyclic boronates in the assay buffers for 10 min at room temperature prior to the initiation of the assay by the addition of the appropriate substrate. The enzyme concentrations used are the following: 1 nM BcII, 100 nM VIM-2, 10 nM IMP-1, 10 nM NDM-1, 1 nM SPM-1, 1 nM TEM-1, 1 nM OXA-10, 2.5 nM CphA, 4 μM PBP 3 and 5 μM PBP 5; note that the final concentrations are stated. […]
The experiments were performed using a PHERAstar FS microplate reader (BMG Labtech) at room temperature (24–25 °C). […] The IC50 values were determined using the software package Graph Prism 5.

[4] = biological target: T4, VIM-2 (Escherichia coli, UniProt Q5U7L7); assay: Fluorogenic β-lactamase inhibition assay (FC-5 substrate), VIM-2; type: biochemical; conditions: for IC50: 10 min preincubation
T4 construct: made in house; host or cells: E. coli
Method: as §1, §2, §3

[5] = biological target: T5, CphA (Aeromonas hydrophila, UniProt P26918); assay: B2 MBL inhibition assay (meropenem substrate), CphA; type: biochemical, Aeromonas hydrophilia; conditions: for IC50: 10 min preincubation
T5 construct: made in house; host or cells: E. coli
Method: as §1, §2, §3

[6] = biological target: T6, PBP 3 (Pseudomonas aeruginosa, UniProt G3XD46); assay: PBP inhibition assay (nitrocefin substrate), PBP 3; type: biochemical; conditions: NI = no inhibition at 100 μM, read-out: IC50 (μM)/pIC50 (converted)
T6 construct: made in house; host or cells: E. coli
Method: as §1, §2, §3

[7] = biological target: T7, TEM-1 (Escherichia coli, UniProt P62593); assay: Fluorogenic β-lactamase inhibition assay (FC-5 substrate), TEM-1; type: biochemical; conditions: for IC50: 10 min preincubation
T7 construct: made in house; host or cells: E. coli
Method: as §1, §2, §3

[8] = test system: HEK293 cells; assay: Cytotoxicity assay (MTS); type: cell-based; conditions: human HEK293 cells, concentrations up to 100 μM, 24 h
Method: HEK293 cells were seeded (2,000 per well) in normal DMEM in 96-well plates.[34] After 24 h, wells were dosed with titrated concentration of compounds in 1% dimethyl sulphoxide (DMSO)—final volume of media about 100 μl. Following a further 24 h incubation period, 20 μl tetrazolium (MTS, CellTiter96Aqueous One Solution (Promega)) was added to the media in each well. The plate was incubated at 37 °C, 5% CO2 for 4 h in the dark before absorbance was read at 490 nm to determine cell proliferation values.

[9] = biological target: SPM-1 (Pseudomonas aeruginosa, UniProt Q8G9Q0); assay: Fluorogenic β-lactamase inhibition assay (FC-5 substrate), SPM-1; type: biochemical; conditions: for IC50: 10 min preincubation
Method: as §1, §2, §3

[10] = biological target: T8, BcII (Bacillus cereus, UniProt P04190); assay: Fluorogenic β-lactamase inhibition assay (FC-5 substrate), BcII; type: biochemical; conditions: for IC50: 10 min preincubation
T8 construct: made in house; host or cells: E. coli
Method: as §1, §2, §3

T7 sequence (P62593 24-286 limits assumed): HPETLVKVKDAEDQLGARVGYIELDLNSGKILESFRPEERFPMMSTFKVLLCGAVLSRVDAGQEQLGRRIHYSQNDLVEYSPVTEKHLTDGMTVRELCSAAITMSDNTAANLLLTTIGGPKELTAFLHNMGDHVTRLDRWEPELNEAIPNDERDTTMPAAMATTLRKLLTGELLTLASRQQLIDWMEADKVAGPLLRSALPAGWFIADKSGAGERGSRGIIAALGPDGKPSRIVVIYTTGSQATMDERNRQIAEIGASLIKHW
T2 sequence (P14489 20-266, species assumed): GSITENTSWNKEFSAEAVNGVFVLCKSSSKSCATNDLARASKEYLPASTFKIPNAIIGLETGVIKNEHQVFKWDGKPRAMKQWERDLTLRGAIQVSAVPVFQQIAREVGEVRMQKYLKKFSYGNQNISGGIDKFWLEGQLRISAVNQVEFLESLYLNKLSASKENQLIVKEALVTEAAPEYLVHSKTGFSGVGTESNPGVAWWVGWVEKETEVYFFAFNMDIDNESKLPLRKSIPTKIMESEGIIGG
SPM-1, sequence (Q8G9Q0 entry or part of it): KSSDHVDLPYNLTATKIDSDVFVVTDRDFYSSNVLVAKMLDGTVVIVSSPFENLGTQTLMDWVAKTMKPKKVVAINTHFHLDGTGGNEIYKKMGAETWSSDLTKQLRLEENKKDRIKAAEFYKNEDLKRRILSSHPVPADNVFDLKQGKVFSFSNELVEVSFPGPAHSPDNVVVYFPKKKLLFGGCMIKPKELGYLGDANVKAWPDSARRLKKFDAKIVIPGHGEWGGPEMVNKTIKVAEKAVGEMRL
T5 sequence (P26918 28-254): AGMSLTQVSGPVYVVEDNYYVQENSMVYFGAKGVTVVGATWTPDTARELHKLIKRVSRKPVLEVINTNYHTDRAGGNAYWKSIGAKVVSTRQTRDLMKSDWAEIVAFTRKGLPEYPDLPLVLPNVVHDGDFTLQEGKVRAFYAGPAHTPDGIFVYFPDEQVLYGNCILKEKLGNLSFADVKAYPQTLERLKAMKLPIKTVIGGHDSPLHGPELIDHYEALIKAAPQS
T8 sequence (P04190 31-257): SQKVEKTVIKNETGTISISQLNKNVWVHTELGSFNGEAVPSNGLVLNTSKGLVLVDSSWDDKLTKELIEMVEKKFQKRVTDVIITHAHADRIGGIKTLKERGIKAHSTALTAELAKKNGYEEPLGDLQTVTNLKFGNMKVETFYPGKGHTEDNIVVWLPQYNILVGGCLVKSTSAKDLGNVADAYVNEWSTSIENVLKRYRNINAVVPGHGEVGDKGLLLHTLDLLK
T6 sequence (G3XD46 whole entry): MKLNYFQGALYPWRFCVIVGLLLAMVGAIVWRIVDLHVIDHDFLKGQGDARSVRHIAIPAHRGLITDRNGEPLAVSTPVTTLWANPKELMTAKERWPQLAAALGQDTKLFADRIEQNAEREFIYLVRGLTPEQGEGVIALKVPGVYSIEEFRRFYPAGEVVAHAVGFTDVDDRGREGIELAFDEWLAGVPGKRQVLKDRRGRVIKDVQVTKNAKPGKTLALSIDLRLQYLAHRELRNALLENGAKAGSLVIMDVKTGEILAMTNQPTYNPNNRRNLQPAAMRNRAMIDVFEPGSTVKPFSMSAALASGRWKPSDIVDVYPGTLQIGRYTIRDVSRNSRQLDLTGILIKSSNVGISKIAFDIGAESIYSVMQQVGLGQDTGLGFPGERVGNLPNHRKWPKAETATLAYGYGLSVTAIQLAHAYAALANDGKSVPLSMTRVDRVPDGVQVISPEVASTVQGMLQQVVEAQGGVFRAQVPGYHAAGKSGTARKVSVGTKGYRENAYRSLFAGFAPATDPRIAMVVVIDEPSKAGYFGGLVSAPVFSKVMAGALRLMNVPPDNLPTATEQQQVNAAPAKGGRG
T1 sequence (C7C422 29-270, looked up, species assumed): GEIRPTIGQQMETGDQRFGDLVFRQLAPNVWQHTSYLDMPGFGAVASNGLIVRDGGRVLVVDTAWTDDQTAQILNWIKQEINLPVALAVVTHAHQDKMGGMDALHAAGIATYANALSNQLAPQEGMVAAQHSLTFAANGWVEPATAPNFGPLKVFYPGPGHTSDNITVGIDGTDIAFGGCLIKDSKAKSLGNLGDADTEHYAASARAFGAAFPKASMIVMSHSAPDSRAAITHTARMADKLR
T3 sequence (P52699 19-246, looked up, species assumed): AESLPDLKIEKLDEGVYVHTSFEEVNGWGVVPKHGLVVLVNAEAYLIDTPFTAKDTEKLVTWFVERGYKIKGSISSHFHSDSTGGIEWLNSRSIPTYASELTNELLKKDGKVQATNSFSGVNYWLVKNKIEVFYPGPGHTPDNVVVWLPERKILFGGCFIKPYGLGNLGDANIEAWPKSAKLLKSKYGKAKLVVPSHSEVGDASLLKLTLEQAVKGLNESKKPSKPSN

| SMILES | pIC50 [1] | IC50 ([1]; 10 min preincubation) [µM] | pIC50 [2] | pIC50 [3] | pIC50 [4] | IC50 [4] [µM] | pIC50 [5] | IC50 [5] [µM] | IC50 [6] [µM] | pIC50 [7] | IC50 [7] [µM] | cytotoxicity [8] | pIC50 [9] | IC50 [9] [µM] | pIC50 [10] | IC50 [10] [µM] | IC50 ([2]; 10 min preincubation) [µM] |
| --- | --- | --- | --- | --- | --- | --- | --- | --- | --- | --- | --- | --- | --- | --- | --- | --- | --- |
| O=C(O)c1cccc2c1O[B-](O)(O)[C@@H](NC(=O)C1CCCCC1)C2 [compound 1] | 5.7 | 2.04 | 6.4 | 4.6 | 7.3 | 0.051 | 5.3 | 4.42 | > 100 | 8.9 | 0.001 | Neither 1 nor 2 showed cytotoxicity | 4.6 | 24.1 | 5.1 | 7.27 |  |
| NCCNCc1ccc(C(=O)N[C@H]2Cc3cccc(C(=O)O)c3O[B-]2(O)O)cc1 [compound 5] |  |  | 4.9 |  |  | 0.002 | > 4 | > 100 | > 100 | 8.1 | 0.006 |  | 4.4 | 36.3 | 5.9 | 1.14 | 12.7 |

From publication PMC4979060, “Structural basis of metallo-β-lactamase, serine-β-lactamase and penicillin-binding protein inhibition by cyclic boronates” (Nature Communications, 2016)
